Experimental data: patent US20090215895A1, “Therapeutic and carrier molecules” (PEPLIN BIOLIPIDS PTY LTD, priority 2004, published 2009)
“Also recorded” adds a separate entry of the source.

Experiments:
[1] = tested on: neutrophil NADPH oxidase; assay: Neutrophil respiratory burst (NADPH oxidase activation, chemiluminescence); format: cell-based, human; conditions: human neutrophils, up to 30 μmol/l
Method: The structure of PT2 is shown in (c) above. In this screening assay, neutrophils were prepared from the blood of healthy volunteers. Freshly collected blood was layered onto a Hypaque-Ficoll medium of density 1.114 and centrifuged at 400 g for 30 mins at room temperature. After centrifugation, the leukocytes resolved into two distinct bands, with neutrophils being present in the second band (Ferrante and Thong, J. Immun. Methods 48:81-85, 1982).
Activation of the neutrophil NADPH oxidase was measured by lucigenin-dependent chemiluminescence following a 10 min incubation of PT2 (20 μM, final concentration) with 1×10^6 neutrophils from different donors (Power et al, J. Immunol. 159:2952-2959, 1997). Arachidonic acid (20:4, n-6) was used as a positive stimulator of the oxidase
Neutrophil respiratory burst was determined as previously described (Li et al, J. Clin. Invest. 97:1605-1609, 1996).

[2] = LPS-induced influx of neutrophils and mononuclear cells in the peritoneal cavity; format: in vivo, BALB/c mice; conditions: 40 mg/kg intravenously, 6 hr before LPS
Method: FIG. 14 is a representation showing (A) effect of MP3 on in vivo inflammatory response measured as delayed type hypersensitivity (DTH) to sheep erythrocytes and LPS-induced influx of neutrophils and mononuclear cells in the peritoneal cavity in BALB/c mice. In the DTH experiments mice were injected with sheep erythrocytes subcutaneously, challenged with the antigen in the hind foot pad 6 days later and the amount of foot pad swelling measured 48 hr later. One hour prior to challenge mice were given 10 mg/kg body weight of β-oxa fatty acid in 7% w/v, DMSO as vehicle intraperitoneally. […] The data, expressed as % of control, are presented as mean±SEM of 10 and 5 mice for DTH and peritoneal inflammation, respectively. […] The data, expressed as % of control, are presented as mean±SEM of ten mice per group and is representative of two experimental runs. […]
Effect of MP3 (β-oxa-23:4n-6) on the in vivo inflammatory response was measured as a delayed type hypersensitivity (DTH) reaction and LPS-induced influx of neutrophils and mononuclear cells in the peritoneal cavity in BALB/c mice. For DTH experiments, mice were injected subcutaneously with 100 μl of 10% hematocrit sheep erythrocytes, challenged with the antigen (25 μl of 40%) in the hind foot pad 6 days later and the degree of foot pad swelling measured 48 hr later (Ferrante et al, Clin. & Exp. Immunol. 38:70-76, 1979). […]

[3] = tested on: VCAM-1; assay: Adhesion molecule expression on HUVEC (ELISA); format: cell-based, human; conditions: for Suppression of TNF-α-induced VCAM-1 expression on HUVEC: 60 min pre-treatment
Method: FIG. 13 is a representation showing effect of MP3 (β-oxa-23:4n-6) and 20:4n-6 on time-related changes in TNF-α-induced E-selectin, ICAM-1 and VCAM-1 expression on HUVEC. HUVEC were pre-treated with 20 μmol/l β-oxa-23:4n-6 (closed triangles), 20 μmol/l 20:4n-6 (open squares), or DPC (control) for 60 min and then further incubated with TNF-α (125 U/200 μl medium) for up to 24 hr. The expression of E-selectin, ICAM-1 and VCAM-1 adhesion molecules was determined by ELISA. The results are expressed as % of control and represent the mean±SEM of three separate experiments each performed in triplicate. * p<0.05, **p<0.01, ***p<0.001, for significant differences between pre-treatment with fatty acid and corresponding control at a particular time point (one-way analysis of variance followed by the Dunnett test for multiple comparisons). Inset: The effect of β-oxa-23:4n-6 on TNF-α-induced expression of E-selectin mRNA in HUVEC. HUVEC were pre-incubated with β-oxa-23:4n-6 (20 μmol/l) or DPC (control) in 1 ml of medium at 37° C. for 60 min. After the addition of TNF-α, the cells were further incubated at 37° C. for 2 hr. E-selectin mRNA expression was then determined and the results expressed as relative %. Results are the mean±SEM of three separate experiments each performed in quadruplicate. *p<0.0001, for significant differences between pre-treatment with β-oxa-23:4n-6, and control (two-tailed Student's t-test for unpaired data).
HUVEC were stimulated with TNF, bacterial lipopolysaccharide (LPS) or PMA for 24 hr. Expression of E-selectin, ICAM-1 and VCAM-1 was determined by an enzyme-linked immunosorbent assay (ELISA) or as mRNA using a slot blot technique (Huang et al 1997 supra).

[4] = tested on: E-selectin; assay: LPS-induced E-selectin expression in aortic endothelium; format: in vivo, BALB/c mice; conditions: intravenous, 2 hr before LPS, aortas after 5 hr
Method: FIG. 14 is a representation showing (A) effect of MP3 on in vivo inflammatory response measured as delayed type hypersensitivity (DTH) to sheep erythrocytes and LPS-induced influx of neutrophils and mononuclear cells in the peritoneal cavity in BALB/c mice. In the DTH experiments mice were injected with sheep erythrocytes subcutaneously, challenged with the antigen in the hind foot pad 6 days later and the amount of foot pad swelling measured 48 hr later. One hour prior to challenge mice were given 10 mg/kg body weight of β-oxa fatty acid in 7% w/v, DMSO as vehicle intraperitoneally. For the peritoneal cavity inflammation, mice were given intravenously 40 mg/kg MP3 intravenously and 6 hr later injected with LPS intraperitoneally. The cellular infiltrates were examined 24 and 72 hr later. The data, expressed as % of control, are presented as mean±SEM of 10 and 5 mice for DTH and peritoneal inflammation, respectively. […] The data, expressed as % of control, are presented as mean±SEM of ten mice per group and is representative of two experimental runs. […]
The LPS-induced expression of E-selectin in the aortic endothelium of BALB/c mice was determined following injection of 50 μg LPS intraperitoneally and aortas encompassing the ascending part of the aortic arch through to the bifurcation to the common iliac arteries isolated after 5 hr. […]

[5] = Tolerability of intravenous MP3; format: in vivo, mice; conditions: 50 mg/kg intravenously, 4 days
Description: In accordance with the present invention, a novel engineered polyunsaturated fatty acid, β-oxa-23:4n-6 (MP3) (FIG. 5) is identified which has the hall-marks of a new class of pharmaceuticals based on polyunsaturated fatty acids and which can be used to prevent and/or treat cardiovascular disease. […] The focus of this embodiment of the subject invention is, therefore, the efficacy of MP3 at suppressing adhesion molecule expression in vivo and the development of atherosclerosis.

## CCCCC/C=C\C/C=C\C/C=C\C/C=C\CCCCOCC(=O)O [MP3, β-oxa-23:4n-6]
[1]
  Stimulation of the neutrophil respiratory burst (chemiluminescence response): relatively poor at stimulating this response; also recorded: failed to cause any significant respiratory burst
[2]
  LPS-induced mononuclear cell infiltrate (72 hr): inhibition of the mononuclear cell infiltrate after 72 hr
  LPS-induced neutrophil influx (24 hr): inhibited the neutrophil influx
[3]; 20 μmol/l
  Suppression of TNF-α-induced VCAM-1 expression on HUVEC: better than docosahexaenoic acid (22:6n-3) at suppressing
[3]; 20 μmol/l, listed as β-oxa-23:4n-6
  Suppression of TNF-α-induced VCAM-1 expression on HUVEC: inhibited the expression
[3]; 20 μmol/l, TNF-α
  Time of cytokine treatment at maximum inhibition of VCAM-1 expression: 12 h
[3]; HUVEC
  Inhibition of LPS and PMA-induced up-regulation of VCAM-1: inhibited LPS and PMA-induced, up-regulation
[4]
  LPS-induced E-selectin expression in aortic endothelium: effective in vivo at suppressing LPS-stimulated up-regulation of E-selectin expression
[4]; listed as β-oxa-23:4n-6
  LPS-induced E-selectin expression in aortic endothelium: significant reduction in LPS-induced E-selectin expression
[5]
  Observable signs of distress: did not cause any observable signs of distress
